Measured values taken from US8394641B2, “Method of hydrolyzing an enzymatic substrate” (Advanced Liquid Logic Inc., priority 2009, dated 2013).

Biological target: T1, α-galactosidase (Homo sapiens, UniProt P06280)
T1 construct: DBS extracts were prepared from quality control (QC) dried blood spot samples; tissue CDC, Atlanta Ga; host or cells: dried blood spot extracts (pooled cord blood / leukoreduced red cells plus serum)
T1 sequence (P06280 32-429): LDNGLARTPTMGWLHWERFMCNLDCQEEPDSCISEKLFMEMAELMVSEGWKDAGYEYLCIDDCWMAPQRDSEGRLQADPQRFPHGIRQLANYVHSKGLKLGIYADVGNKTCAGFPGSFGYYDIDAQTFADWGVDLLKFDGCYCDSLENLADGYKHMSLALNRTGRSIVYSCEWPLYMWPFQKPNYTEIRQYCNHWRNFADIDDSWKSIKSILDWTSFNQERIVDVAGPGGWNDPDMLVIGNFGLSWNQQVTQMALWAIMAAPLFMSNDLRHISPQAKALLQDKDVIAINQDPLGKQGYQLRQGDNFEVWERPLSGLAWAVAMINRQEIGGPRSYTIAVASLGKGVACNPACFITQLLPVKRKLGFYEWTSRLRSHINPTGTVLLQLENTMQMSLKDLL
Experiment: Fabry assay on bench, substrate hydrolysis with cyclodextrins, QC DBS extracts
Assay type: biochemical
Conditions: for effect on hydrolysis of the 4-MU substrate in the Fabry assay: 10, 30, 100 mM tested, effect at 10 mM
Method: To evaluate the efficacy of cyclodextrins in enhancing the hydrolysis of enzymatic substrates (4-MU substrates) used in NBS assays, DBS extracts were prepared from quality control (QC) dried blood spot samples (i.e., base pool (BP), low (L), medium (M) and high (H) activity samples). The QC samples were obtained from CDC, Atlanta Ga. The base pool (BP) QC sample was prepared from a pool of leukoreduced human red blood cells that was adjusted with serum to a hematocrit of 50%. The High (H) activity QC sample was prepared from pooled cord blood that was adjusted with serum to a hematocrit of 50%. The medium (M) activity QC sample was prepared by using 50% base pool (BP) and 50% high (H) activity sample. The low (L) activity QC sample was prepared by using 95% base pool (BP) and 5% high (H) activity sample. The BP sample is used as a control for hydrolysis non-specific to white blood cell lysosomal enzymes. The DBS extracts were analyzed using on-bench assay protocols for Fabry, Gaucher, Krabbe, and Pompe diseases. For each assay, on-chip reagent formulations were scaled up to bench volumes. Hydroxypropyl-β-cyclodextrin or methyl-β-cyclodextrin reagent stocks (300 mM) were prepared in appropriate assay buffers. For each reaction, 10 μL of the appropriate substrate was mixed with 10 μL of DBS extract. After an incubation period (20 hrs at 37° C.), 50 μL of stop buffer (0.2 M NaCO3, pH 10.1) was added to the reaction. Fluorescence was read at 360/460 nm at a gain of 75. For each assay, QC samples (BP, L, M and H) were analyzed in duplicate.
FIGS. 20A and 20B show bar graphs 2000 and 2050 of the effect of hydroxypropyl-β-cyclodextrin and methyl-β-cyclodextrin, respectively, on substrate hydrolysis in a Fabry assay. The 4-MU substrate in the Fabry assay was β-D-galactopyranoside. The concentrations of β-cyclodextrins in the reaction mixture (substrate+DBS extract) were 10 mM, 30 mM and 100 mM.
To further evaluate the efficacy of lower concentrations of cyclodextrins in enhancing the hydrolysis of 4-MU substrates, Fabry and Gaucher assays were repeated using cyclodextrins concentrations ranging from 1 mM to 25 mM. FIGS. 22A and 22B show bar graphs 2200 and 2250, respectively, of the effect of lower concentrations of hydroxypropyl-β-cyclodextrin and methyl-β-cyclodextrin, respectively, on substrate hydrolysis in a Fabry assay. The 4-MU substrate in the Fabry assay was β-D-galactopyranoside. The concentrations of β-cyclodextrins in the reaction mixture (substrate+DBS extract) were 1, 5, 10, 15, 20, and 25 mM. […] The preferred concentration of methyl-β-cyclodextrin is from about 1 mM to about 20 mM, or from about 5 mM to about 15 mM, or from about 7 mM to about 13 mM, or from about 9 mM to about 11 mM, or from about 9.5 mM to about 11.5 mM.

Substance | effect on substrate hydrolysis in a Fabry assay, lower concentrations (1, 5, 10, 15, 20, 25 mM) | effect on hydrolysis of the 4-MU substrate in the Fabry assay (20 hrs at 37° C.) | increase of the QC-H signal in the Fabry assay (10 mM, 20 hrs at 37° C.) [%]
hydroxypropyl-β-cyclodextrin | less effective | less effective | 
methyl-β-cyclodextrin |  | increase the hydrolysis | 37
